Data reported in paper PMC8408276, “Distinct neuropeptide-receptor modules regulate a sex-specific behavioral response to a pheromone” (Communications Biology, 2021).
Where a SMILES comes first, the peptide text is derived from it.

Assays:
FRPR-16 = target: T1, FRPR-16 (Caenorhabditis elegans, UniProt Q21957); assay: In vitro GPCR activation assay (CHO-K1, aequorin, Gα16), FRPR-16; format: cell-based, C. elegans; details: FRPR-16 in CHO-K1 cells with mtAEQ aequorin and human Gα16, peptide 1 pM to 10 µM, n ≥ 6, Fig. 4i
T1 sequence (Q21957 1-340): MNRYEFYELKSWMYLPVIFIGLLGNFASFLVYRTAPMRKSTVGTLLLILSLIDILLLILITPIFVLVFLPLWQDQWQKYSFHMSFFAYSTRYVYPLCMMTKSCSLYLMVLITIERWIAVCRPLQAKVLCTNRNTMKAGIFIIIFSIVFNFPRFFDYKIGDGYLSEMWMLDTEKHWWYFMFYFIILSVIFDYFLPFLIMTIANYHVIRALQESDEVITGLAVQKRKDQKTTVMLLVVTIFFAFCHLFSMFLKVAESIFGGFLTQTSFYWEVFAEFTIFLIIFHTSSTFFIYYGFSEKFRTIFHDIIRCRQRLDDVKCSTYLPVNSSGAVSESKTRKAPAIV
Procedure: (§1) The GPCR activation assay was performed as previously described[66],[74]. Briefly, npr-10 and frpr-16 cDNAs were cloned into the pcDNA3.1 TOPO expression vector (Thermo Fisher Scientific). A CHO-K1 cell line (PerkinElmer, ES-000-A24) stably expressing apo-aequorin targeted to the mitochondria (mtAEQ) and human Gα16 was transiently transfected with the receptor cDNA construct or the empty pcDNA3.1 vector using Lipofectamine LTX and Plus reagent (Thermo Fisher Scientific). Cells were shifted to 28 °C one day later and allowed to incubate for 24 h. On the day of the assay, cells were collected in BSA medium (DMEM/Ham’s F12 with 15 mM HEPES, without phenol red, 0.1% BSA) and loaded with […] coelenterazine h (Thermo Fisher Scientific) for 4 h at room temperature. The incubated cells were then added to synthetic peptides dissolved in DMEM/BSA, and luminescence was measured for 30 s at 496 nm using a Mithras LB940 (Berthold Technologies) or MicroBeta LumiJet luminometer (PerkinElmer). After 30 s of readout, 0.1% triton X-100 was added to lyse the cells, resulting in a maximal calcium response that was measured for 10 s. After initial screening, concentration-response curves were constructed for HPLC-purified FLP-3 peptides by subjecting the transfected cells to each peptide in a concentration range from 1 pM to 10 µM. Cells transfected with an empty vector were used as a negative control. Assays were performed in triplicate on at least two independent days. Concentration-response curves were fitted using Prism v. 7 (nonlinear regression analysis with a sigmoidal concentration-response equation).

NPR-10B = target: T2, NPR-10B (Caenorhabditis elegans, UniProt Q6EUU1); assay: In vitro GPCR activation assay (CHO-K1, aequorin, Gα16), NPR-10B; format: cell-based, C. elegans; details: NPR-10B in CHO-K1 cells with mtAEQ aequorin and human Gα16, peptide 1 pM to 10 µM, n ≥ 6, Fig. 4i
T2 sequence (Q6EUU1 1-362): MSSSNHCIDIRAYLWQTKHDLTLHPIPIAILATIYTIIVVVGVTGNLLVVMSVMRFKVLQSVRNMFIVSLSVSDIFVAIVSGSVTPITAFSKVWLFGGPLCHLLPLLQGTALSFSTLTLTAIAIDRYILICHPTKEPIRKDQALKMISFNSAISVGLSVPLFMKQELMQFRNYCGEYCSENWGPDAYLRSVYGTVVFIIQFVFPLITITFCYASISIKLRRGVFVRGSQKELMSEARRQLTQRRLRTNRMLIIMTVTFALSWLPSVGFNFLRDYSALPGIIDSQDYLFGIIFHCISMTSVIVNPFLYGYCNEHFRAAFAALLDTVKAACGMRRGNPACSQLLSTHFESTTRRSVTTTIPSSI
Procedure: as §1

EC50 (FRPR-16; luminescence 30 s) [µM] | EC50 (NPR-10B; luminescence 30 s) [µM] | EC50 (NPR-10B) [µM] | EC50 (FRPR-16) [µM] | SMILES
0.0074 | 0.262 | – | – | CSCC[C@H](NC(=O)[C@@H](NC(=O)CNC(=O)[C@H](CC(C)C)NC(=O)[C@@H]1CCCN1C(=O)[C@@H](N)CO)[C@@H](C)O)C(=O)N[C@@H](CCCNC(=N)N)C(=O)N[C@@H](Cc1ccccc1)C(N)=O [FLP-3-1, SPLGTMRFamide] (H-SPLGTMRF-NH2)
0.0317 | 0.367 | – | – | CSCC[C@H](NC(=O)[C@@H](NC(=O)CNC(=O)[C@H](CC(C)C)NC(=O)[C@@H]1CCCN1C(=O)[C@@H](N)[C@@H](C)O)[C@@H](C)O)C(=O)N[C@@H](CCCNC(=N)N)C(=O)N[C@@H](Cc1ccccc1)C(N)=O [FLP-3-2, TPLGTMRFamide] (H-TPLGTMRF-NH2)
0.288 | 0.867 | – | – | CSCC[C@H](NC(=O)[C@@H](NC(=O)CNC(=O)[C@H](CC(C)C)NC(=O)[C@@H]1CCCN1C(=O)[C@H](CCC(=O)O)NC(=O)[C@H](CCC(=O)O)NC(=O)[C@H](C)NC(=O)[C@@H](N)CCC(=O)O)[C@@H](C)O)C(=O)N[C@@H](CCCNC(=N)N)C(=O)N[C@@H](Cc1ccccc1)C(N)=O [FLP-3-3, EAEEPLGTMRFamide] (H-EAEEPLGTMRF-NH2)
0.0107 | 0.427 | – | – | CSCC[C@H](NC(=O)[C@@H](NC(=O)CNC(=O)[C@H](CC(C)C)NC(=O)[C@@H]1CCCN1C(=O)[C@@H](N)CC(N)=O)[C@@H](C)O)C(=O)N[C@@H](CCCNC(=N)N)C(=O)N[C@@H](Cc1ccccc1)C(N)=O [FLP-3-4, NPLGTMRFamide] (H-NPLGTMRF-NH2)
0.0721 | – | 1.1 | – | CSCC[C@H](NC(=O)[C@@H](NC(=O)CNC(=O)[C@H](Cc1ccccc1)NC(=O)[C@H](CC(C)C)NC(=O)[C@H](C)NC(=O)[C@H](CC(=O)O)NC(=O)[C@H](CCC(=O)O)NC(=O)[C@H](CO)NC(=O)[C@H](C)N)[C@@H](C)O)C(=O)N[C@@H](CCCNC(=N)N)C(=O)N[C@@H](Cc1ccccc1)C(N)=O [FLP-3-5, ASEDALFGTMRFamide] (H-ASEDALFGTMRF-NH2)
0.0395 | 0.439 | – | – | CSCC[C@H](NC(=O)[C@@H](NC(=O)CNC(=O)[C@H](Cc1ccccc1)NC(=O)[C@@H]1CCCN1C(=O)[C@H](CCC(=O)O)NC(=O)[C@H](C)NC(=O)[C@@H](N)CO)[C@@H](C)O)C(=O)N[C@@H](CCCNC(=N)N)C(=O)N[C@@H](Cc1ccccc1)C(N)=O [FLP-3-7, SAEPFGTMRFamide] (H-SAEPFGTMRF-NH2)
– | – | – | 1.6 | CSCC[C@H](NC(=O)[C@@H](NC(=O)CNC(=O)[C@H](Cc1ccccc1)NC(=O)[C@@H]1CCCN1C(=O)[C@H](C)NC(=O)[C@H](CO)NC(=O)[C@H](CC(=O)O)NC(=O)[C@H](CC(=O)O)NC(=O)[C@H](C)NC(=O)[C@@H](N)CO)[C@@H](C)O)C(=O)N[C@@H](CCCNC(=N)N)C(=O)N[C@@H](Cc1ccccc1)C(N)=O [FLP-3-8, SADDSAPFGTMRFamide] (H-SADDSAPFGTMRF-NH2)
0.0883 | 0.76 | – | – | CSCC[C@H](NC(=O)[C@@H](NC(=O)CNC(=O)[C@H](Cc1ccccc1)NC(=O)[C@@H]1CCCN1C(=O)[C@@H](NC(=O)[C@H](CC(=O)O)NC(=O)[C@H](CC(N)=O)NC(=O)[C@H](CCC(=O)O)NC(=O)[C@@H]1CCCN1C(=O)[C@@H](N)CC(N)=O)[C@@H](C)O)[C@@H](C)O)C(=O)N[C@@H](CCCNC(=N)N)C(=O)N[C@@H](Cc1ccccc1)C(N)=O [FLP-3-9, NPENDTPFGTMRFamide] (H-NPENDTPFGTMRF-NH2)
